Source: the NIST ThermoML archive (doi:10.1021/je800579j)

Test: refractive index (Na D-line) (dimensionless); xn = mol fraction of the nth substance listed
Details: Liquid, Standard Abbe refractometry

C1COCCO1 [1,4-dioxane] + c1ccccc1
refractive index
Details | 288.15 K | 293.15 K | 298.15 K | 303.15 K | 308.15 K | 313.15 K | 318.15 K
x1 = 0.0713 | 1.4982 | 1.4951 | 1.4921 | 1.489 | 1.4859 | 1.4829 | 1.4798
x1 = 0.1403 | 1.4924 | 1.4894 | 1.4864 | 1.4834 | 1.4803 | 1.4773 | 1.4743
x1 = 0.2123 | 1.4864 | 1.4835 | 1.4805 | 1.4775 | 1.4746 | 1.4716 | 1.4686
x1 = 0.2809 | 1.4807 | 1.4778 | 1.4749 | 1.472 | 1.4691 | 1.4662 | 1.4633
x1 = 0.3528 | 1.4748 | 1.472 | 1.4692 | 1.4663 | 1.4635 | 1.4607 | 1.4578
x1 = 0.4195 | 1.4694 | 1.4666 | 1.4639 | 1.4611 | 1.4583 | 1.4556 | 1.4528
x1 = 0.5037 | 1.4626 | 1.4599 | 1.4573 | 1.4546 | 1.4519 | 1.4492 | 1.4465
x1 = 0.58 | 1.4565 | 1.4539 | 1.4513 | 1.4487 | 1.4461 | 1.4435 | 1.4409
x1 = 0.6504 | 1.451 | 1.4484 | 1.4459 | 1.4434 | 1.4409 | 1.4383 | 1.4357
x1 = 0.7197 | 1.4456 | 1.4432 | 1.4407 | 1.4382 | 1.4358 | 1.4332 | 1.4307
x1 = 0.7822 | 1.4408 | 1.4384 | 1.436 | 1.4336 | 1.4312 | 1.4287 | 1.4263
x1 = 0.8561 | 1.4352 | 1.4329 | 1.4306 | 1.4283 | 1.426 | 1.4236 | 1.4212
x1 = 0.9287 | 1.4298 | 1.4276 | 1.4254 | 1.4232 | 1.421 | 1.4187 | 1.4164
x1 = 1 | 1.4245 | 1.4224 | 1.4203 | 1.4182 | 1.4161 | 1.4139 | 1.4117

C1COCCO1 [1,4-dioxane] + Cc1ccccc1
refractive index
Details | 288.15 K | 293.15 K | 298.15 K | 303.15 K | 308.15 K | 313.15 K | 318.15 K
x1 = 0.0688 | 1.4955 | 1.4927 | 1.4899 | 1.487 | 1.4841 | 1.4812 | 1.4783
x1 = 0.1373 | 1.4914 | 1.4886 | 1.4858 | 1.4829 | 1.48 | 1.4771 | 1.4742
x1 = 0.2112 | 1.4869 | 1.4842 | 1.4814 | 1.4786 | 1.4757 | 1.4729 | 1.47
x1 = 0.2858 | 1.4822 | 1.4795 | 1.4768 | 1.474 | 1.4712 | 1.4684 | 1.4655
x1 = 0.3552 | 1.4775 | 1.4749 | 1.4722 | 1.4695 | 1.4668 | 1.464 | 1.4613
x1 = 0.4361 | 1.4719 | 1.4693 | 1.4667 | 1.464 | 1.4614 | 1.4587 | 1.456
x1 = 0.5064 | 1.4668 | 1.4643 | 1.4617 | 1.4591 | 1.4565 | 1.4539 | 1.4512
x1 = 0.5819 | 1.4611 | 1.4586 | 1.4561 | 1.4536 | 1.451 | 1.4484 | 1.4458
x1 = 0.6506 | 1.4557 | 1.4533 | 1.4508 | 1.4483 | 1.4458 | 1.4433 | 1.4408
x1 = 0.7212 | 1.4499 | 1.4475 | 1.4451 | 1.4427 | 1.4403 | 1.4378 | 1.4353
x1 = 0.7903 | 1.444 | 1.4417 | 1.4393 | 1.437 | 1.4346 | 1.4322 | 1.4298
x1 = 0.864 | 1.4374 | 1.4352 | 1.4329 | 1.4306 | 1.4283 | 1.426 | 1.4236
x1 = 0.9336 | 1.431 | 1.4288 | 1.4266 | 1.4244 | 1.4222 | 1.4199 | 1.4176
x1 = 1 | 1.4245 | 1.4224 | 1.4203 | 1.4182 | 1.4161 | 1.4139 | 1.4117

Cc1cccc(C)c1 [1,3-dimethylbenzene] + C1COCCO1
refractive index
Details | 288.15 K | 293.15 K | 298.15 K | 303.15 K | 308.15 K | 313.15 K | 318.15 K
x2 = 0 | 1.4999 | 1.4974 | 1.4948 | 1.4922 | 1.4896 | 1.487 | 1.4844
x2 = 0.0938 | 1.4933 | 1.4907 | 1.488 | 1.4853 | 1.4826 | 1.4799 | 1.4772
x2 = 0.1532 | 1.489 | 1.4864 | 1.4837 | 1.4811 | 1.4783 | 1.4756 | 1.4728
x2 = 0.2046 | 1.4852 | 1.4826 | 1.4799 | 1.4772 | 1.4745 | 1.4718 | 1.4691
x2 = 0.2698 | 1.4805 | 1.4779 | 1.4753 | 1.4726 | 1.4699 | 1.4672 | 1.4645
x2 = 0.3374 | 1.4755 | 1.473 | 1.4704 | 1.4677 | 1.4651 | 1.4624 | 1.4597
x2 = 0.4002 | 1.4709 | 1.4684 | 1.4658 | 1.4632 | 1.4606 | 1.458 | 1.4553
x2 = 0.4714 | 1.4656 | 1.4631 | 1.4606 | 1.458 | 1.4555 | 1.4529 | 1.4503
x2 = 0.5487 | 1.4598 | 1.4574 | 1.4549 | 1.4524 | 1.4498 | 1.4473 | 1.4447
x2 = 0.63 | 1.4536 | 1.4512 | 1.4487 | 1.4462 | 1.4437 | 1.4412 | 1.4387
x2 = 0.7182 | 1.4468 | 1.4444 | 1.442 | 1.4395 | 1.4371 | 1.4346 | 1.4321
x2 = 0.8035 | 1.4401 | 1.4378 | 1.4354 | 1.4329 | 1.4305 | 1.428 | 1.4256
x2 = 0.8708 | 1.4348 | 1.4325 | 1.4302 | 1.4279 | 1.4255 | 1.4231 | 1.4206
x2 = 0.9324 | 1.4299 | 1.4277 | 1.4255 | 1.4232 | 1.4209 | 1.4186 | 1.4163
